Results on seven compounds are retold here after ChEMBL document CHEMBL5303573, “Mapping human microbiome drug metabolism by gut bacteria and their genes” (Nature, 2019).

Series [1] in a line: The drug is tested on Bifidobacterium breve strain: DSM20213 for biotransformation. The drug concentrations were measured before and after a 12-h incubation by liquid-chromatography-coupled mass spectrometry (LC–MS). To be noted: 2 µM.
The nature of series [2]: The drug is tested on Bifidobacterium longum subsp. Infantis strain: CCUG52486 for biotransformation. The drug concentrations were measured before and after a 12-h incubation by liquid-chromatography-coupled mass spectrometry (LC–MS). The conditions noted are these: 2 µM.
Series [3] can be described thus: The drug is tested on Collinsella aerofaciens strain: ATCC25986 for biotransformation. The drug concentrations were measured before and after a 12-h incubation by liquid-chromatography-coupled mass spectrometry (LC–MS). To be noted: 2 µM.
Series [4] can be described thus: The drug is tested on Bacteroides coprophilus strain: DSM18228 for biotransformation. The drug concentrations were measured before and after a 12-h incubation by liquid-chromatography-coupled mass spectrometry (LC–MS). The conditions noted are these: 2 µM.
Series [5] is described as follows: The drug is tested on Bacteroides ovatus strain: ATCC8483 for biotransformation. The drug concentrations were measured before and after a 12-h incubation by liquid-chromatography-coupled mass spectrometry (LC–MS). To be noted: 2 µM.
The nature of series [6]: The drug is tested on Bacteroides sp. WH2 strain: WH2 for biotransformation. The drug concentrations were measured before and after a 12-h incubation by liquid-chromatography-coupled mass spectrometry (LC–MS). The conditions noted are these: bacteroides sp. wh2, 12 h, 2 µM.
A short description of series [7]: The drug is tested on Bacteroides xylanisolvens strain: DSM18836 for biotransformation. The drug concentrations were measured before and after a 12-h incubation by liquid-chromatography-coupled mass spectrometry (LC–MS). To be noted: 2 µM.
Series [8] in a line: The drug is tested on Clostridium ramosum strain: DSM1402 for biotransformation. The drug concentrations were measured before and after a 12-h incubation by liquid-chromatography-coupled mass spectrometry (LC–MS). The conditions noted are these: thomasclavelia ramosa, 2 µM.
Series [9] in a line: The drug is tested on Enterococcus faecalis strain: V583 for biotransformation. The drug concentrations were measured before and after a 12-h incubation by liquid-chromatography-coupled mass spectrometry (LC–MS). The conditions noted are these: 2 µM.
Series [10] is described as follows: The drug is tested on Eubacterium hallii strain: DSM3353 for biotransformation. The drug concentrations were measured before and after a 12-h incubation by liquid-chromatography-coupled mass spectrometry (LC–MS). To be noted: anaerobutyricum hallii, 2 µM.
Series [11] in a line: The drug is tested on Eubacterium rectale strain: ATCC33656 for biotransformation. The drug concentrations were measured before and after a 12-h incubation by liquid-chromatography-coupled mass spectrometry (LC–MS). To be noted: agathobacter rectalis, 2 µM.
The nature of series [12]: The drug is tested on Eubacterium ventriosum strain: ATCC27560 for biotransformation. The drug concentrations were measured before and after a 12-h incubation by liquid-chromatography-coupled mass spectrometry (LC–MS). Type of series: ADME. To be noted: 2 µM. The arrangement: dose 2 uM, timepoint 0 vs 12 hours.
A short description of series [13]: The drug is tested on Ruminococcus torques strain: ATCC27756 for biotransformation. The drug concentrations were measured before and after a 12-h incubation by liquid-chromatography-coupled mass spectrometry (LC–MS). Type of series: ADME. The arrangement: dose 2 uM, timepoint 0 vs 12 hours. To be noted: 2 µM.
The nature of series [14]: The drug is tested on Providencia stuartii strain: ATCC25827 for biotransformation. The drug concentrations were measured before and after a 12-h incubation by liquid-chromatography-coupled mass spectrometry (LC–MS). The conditions noted are these: 2 µM.
The conditions of series [15]: bifidobacterium adolescentis, 12 h, 2 µM.
Description: The drug is tested on Bifidobacterium adolescentis strain: ATCC 15703 for biotransformation. The drug concentrations were measured before and after a 12-h incubation by liquid-chromatography-coupled mass spectrometry (LC–MS)
For series [16] the following is noted: parabacteroides johnsonii, 12 h, 2 µM.
Description: The drug is tested on Parabacteroides johnsonii strain: DSM18315 for biotransformation. The drug concentrations were measured before and after a 12-h incubation by liquid-chromatography-coupled mass spectrometry (LC–MS)
For series [17] the following is noted: enterocloster bolteae, 12 h, 2 µM.
Description: The drug is tested on Clostridium bolteae strain: ATCCBAA-613 for biotransformation. The drug concentrations were measured before and after a 12-h incubation by liquid-chromatography-coupled mass spectrometry (LC–MS)
Series [18] in a line: The drug is tested on Bacteroides fragilis strain: HMW615 for biotransformation. The drug concentrations were measured before and after a 12-h incubation by liquid-chromatography-coupled mass spectrometry (LC–MS). To be noted: 2 µM.

Regarding `CSc1ccc2c(c1)C(N1CCN(C)CC1)Cc1ccccc1S2.O=C(O)/C=C\C(=O)O` (stereo not given), the “Bacterial Biotransformation” value in series [1] is reported as “Compound metabolized”; in series [2], “Compound NOT metabolized”; in series [3], “Compound NOT metabolized”; in series [4], “Compound NOT metabolized”; in series [5], “Compound NOT metabolized”; in series [6], “Compound NOT metabolized”. The “Bacterial Biotransformation” value in [7], in series [8], in series [9], in series [10], in series [11] and in series [12] was “Compound NOT metabolized” each time. The “Bacterial Biotransformation” value in series [13] is listed as “Compound NOT metabolized”; in series [14], “Compound NOT metabolized”; in series [15], “Compound NOT metabolized”; in [16] it was “Compound metabolized”; in series [17], “Compound NOT metabolized”.
Regarding `O=C1CN2Cc3c(ccc(Cl)c3Cl)N=C2N1` [ANAGRELIDE], the “Bacterial Biotransformation” value in series [1], in [3], in series [4], in series [18], in series [5] and in series [6] was “Compound NOT metabolized” each time. Besides, the “Bacterial Biotransformation” value in series [7], in series [8], in [9], in series [10], in [12] and in series [13] was “Compound NOT metabolized” in each case. For the same compound, the “Bacterial Biotransformation” value is on record as “Compound NOT metabolized” in [14], “Compound NOT metabolized” in series [15], “Compound metabolized” in series [16] and “Compound NOT metabolized” in series [17].
In the case of `CN(C)CCOC(c1ccc(Cl)cc1)c1ccccn1.O=C(O)/C=C\C(=O)O` (stereo not given) [CARBINOXAMINE MALEATE], the “Bacterial Biotransformation” value in series [1], in [2], in [3], in series [4], in series [18] and in series [5] was “Compound NOT metabolized” throughout. Further, the “Bacterial Biotransformation” value in [6], in [7], in series [8], in series [9], in [10] and in series [12] was “Compound NOT metabolized” in each case. The “Bacterial Biotransformation” value in [13], in [14], in series [15], in series [16] and in series [17] was “Compound NOT metabolized” each time.
On to `O=C(O)COCCN1CCN(C(c2ccccc2)c2ccc(Cl)cc2)CC1` (stereo not given) [CETIRIZINE], for which the “Bacterial Biotransformation” value is recorded as “Compound NOT metabolized” in [1]; “Compound NOT metabolized” in [2]; “Compound NOT metabolized” in series [3]; “Compound metabolized” in [4]; “Compound metabolized” in [18]; “Compound NOT metabolized” in [6]. For the same compound, the “Bacterial Biotransformation” value in series [7] was “Compound metabolized”; in series [8], “Compound NOT metabolized”; in [9], “Compound NOT metabolized”; in [10], “Compound NOT metabolized”; in [11] it was “Compound NOT metabolized”; in [12], “Compound NOT metabolized”. For the same compound, the “Bacterial Biotransformation” value in series [13], in [16] and in series [17] was “Compound NOT metabolized” throughout.
Take `Clc1ccc(Cn2c(CN3CCCC3)nc3ccccc32)cc1` [CLEMIZOLE]: the “Bacterial Biotransformation” value in series [1], in series [2], in [3], in [18], in [5] and in series [6] was “Compound NOT metabolized” each time. In addition, the “Bacterial Biotransformation” value in series [7], in [8], in series [9], in series [10], in [11] and in series [12] was “Compound NOT metabolized” each time. For the same compound, the “Bacterial Biotransformation” value in series [13], in series [14], in series [15], in series [16] and in series [17] was “Compound NOT metabolized” throughout.
Turning to `COc1cc2c(c(OC)c1OC)-c1ccc(OC)c(=O)cc1[C@@H](NC(C)=O)CC2` [COLCHICINE], the “Bacterial Biotransformation” value in series [1], in series [2], in series [3], in series [4], in series [5] and in [8] was “Compound NOT metabolized” throughout. For the same compound, the “Bacterial Biotransformation” value in [9], in series [10], in [11], in [12], in [13] and in series [14] was “Compound NOT metabolized” throughout. Besides, the “Bacterial Biotransformation” value is given as “Compound NOT metabolized” in [15], “Compound metabolized” in [16] and “Compound NOT metabolized” in series [17].
For `CCOC(=O)[C@H](CCc1ccccc1)N[C@@H](C)C(=O)N1[C@H](C(=O)O)C[C@H]2CCCC[C@@H]21` [TRANDOLAPRIL], the “Bacterial Biotransformation” value was “Compound metabolized” in series [1]; “Compound NOT metabolized” in [2]; “Compound NOT metabolized” in [3]; “Compound metabolized” in series [18]; “Compound metabolized” in [7]; “Compound NOT metabolized” in [8]. Besides, the “Bacterial Biotransformation” value in series [10], in series [11], in series [12], in series [13], in series [14] and in [15] was “Compound NOT metabolized” in each case. Moreover, the “Bacterial Biotransformation” value in series [17] is reported as “Compound metabolized”.
